For orientation: IC50 means the concentration needed to halve the response being measured. Usually inhibition stands for the drop in the measured response relative to a control, in per cent. Broadly, the bioavailability is the share of a dose that reaches the circulation, judged against a reference dose that is usually intravenous.

Data set [1] addresses human pancreatic secreted PLA2 (hps PLA2) (Homo sapiens, UniProt P04054). To be noted: reported literature data; cited from earlier work.
The target in data set [2] is porcine pancreatic secreted PLA2 (pps PLA2) (Sus scrofa, UniProt P00592). To be noted: reported literature data; cited from earlier work.
The nature of data set [3]: Toxicology, 5-day daily oral gavage. The data set is classed as in vivo, mice. To be noted: 5 consecutive days. An excerpt:
The purpose of this study was to evaluate the toxicity of indole and indole-related Test Articles when administered daily via oral gavage to mice for 5 consecutive days.
Assessment of toxicity was based on mortality; clinical signs, body weight, food consumption, clinical pathology, and macroscopic pathology data.

In data set [4] the test system is C57BL/6J mouse model of obesity. Description: Mouse diet-induced obesity model (Example 14). The data set is classed as in vivo. The settings on record: low fat control diet D12328, 25 or 90 mg/kg/d, vs low fat diet alone. An excerpt:
The high-fat diet-fed C57BL/6J mouse model of human diabetes, originally introduced by Surwit and colleagues (Surwit, R S, et al. (1988) “Diet-induced type II diabetes in C57BL/6J mice”, Diabetes 37: 1163-1167) is a widely accepted, clinically relevant, polygenic model that induces obesity, dyslipidemia, glucose- and insulin-resistance as early as 3 weeks after commencing the high fat diet (Winzell, M S and Ahren, B (2004) “The high-fat diet-fed mouse: a model for studying mechanisms and treatment of impaired glucose tolerance and type 2 diabetes”, Diabetes 53 Suppl 3: S215-219). This model was used to investigate the effects of indole and indole-related Test Articles. Avandia (rosiglitazone) was used as a control Test Article.
Female C57Black/6J mice (5-6 weeks old) were obtained from Jackson laboratories (Bar Harbor, Me.). […] Diet and water was provided ad libitum throughout the course of the study. Animals were acclimated for at least seven days, and then randomized by weight into twelve groups of eight animals each. Each group of animals was placed on diets with and without Test Articles as described in Table 12. All diets other than Laboratory Rodent Diet 5001 were provided by Research Diets (New Brunswick, N.J.).
In these studies and the accompanying figures, Diet D12328 from Research Diets is referred to as the “Low Fat” or Control diet/chow, while Diet D12331 from Research Diets is referred to as the “High Fat” diet. Groups 1-6 were fed diet D12328 that contained either no drug (Group 1) or varying amounts of Test Articles (Groups 2-6). Groups 7-12 were fed diet D12331 that contained either no drug (Group 7) or varying amounts of Test Articles (Groups 8-12). The Test Article content was calculated such that ad libitum consumption by the animals would deliver doses (in mg of Test Article per kg animal weight per day) approximating those listed in Table 12.
Animals were maintained on the diets for up to eleven weeks. Body weights were recorded weekly. Blood was drawn within 1-2 hrs of lights-on. without fasting. The serum was analyzed for glucose, total cholesterol, triglycerides (TG) and lysophospholipid (LPC) content.
Statistical analyses were performed using GraphPad Prism 4.03. (GraphPad Software, Inc., San Diego, Calif.). Two sets of statistical analyses were performed. First, the Low Fat Chow, no treatment group was compared by student's two-tailed T-test against the High Fat, High Sucrose diet, no treatment group. […] Second, all treatment groups on the High Fat, High Sucrose diet were compared to the no-treatment group on that diet by 1-way ANOVA, followed by a Dunnett's post-test.

For data set [5], the system named is LDL receptor knockout mice (B6.129S7-Ldlrtm1Her). Description: LDL receptor knockout mouse model (Example 15). Format: in vivo. The settings on record: low fat control diet D12328, 25 or 90 mg/kg/d, vs low fat diet alone. The source says: Mice lack an enzyme found in humans, cholesterol ester transfer protein (CETP), which is responsible for the transfer of cholesterol from high density lipoproteins (HDL) to the ApoB-containing lipoproteins such as very low density lipoproteins (VLDL) and low density lipoproteins (LDL). Consequently, LDL cholesterol levels in wild-type mice are very low compared to those seen in humans. The low density lipoprotein receptor (LDLR) is involved with clearing LDL and lipoprotein remnants containing apoE. If the LDLR is inactivated, LDL cholesterol levels rise to levels seen in humans. On a normal rodent diet, the LDL cholesterol levels in LDLR deficient mice are elevated compared to wild-type mice. If the LDLR deficient mice are fed a Western-type diet containing elevated levels of fats and cholesterol, then the total cholesterol and LDL cholesterol levels become highly elevated and can exceed 1000 mg/dL and 300 mg/dL, respectively. This model was used to investigate the effects of indole and indole-related Test Articles. Avandia (rosiglitazone) and Zetia (ezetimibe) were used as control test articles.
Male LDL receptor knockout mice (B6.129S7-Ldlrtm1Her) were obtained from Jackson Labs (Bar Harbor, Me.). […] Diet and water was provided ad libitum throughout the course of the study. Animals were acclimated for at least seven days, and then randomized by body weight into fourteen groups of seven animals each. Each group of animals was placed on diets with and without Test Articles as described in Table 13. All diets other than Laboratory Rodent Diet 5001 were provided by Research Diets (New Brunswick, N.J.).
In these studies and the accompanying figures, Diet D12328 from Research Diets is referred to as the “Low Fat” or Control diet, while Diet D12079B from Research Diets is referred to as the “Western” diet. Groups 1-7 were fed diet D12328 that contained either no drug (Group 1) or varying amounts of Test Articles (Groups 2-7). Groups 8-14 were fed diet D12079 that contained either no drug (Group 8) or varying amounts of Test Articles (Groups 9-14). The Test Article content was calculated such that ad libitum consumption by the animals would deliver doses (in mg of Test Article per Kg animal weight per day) approximating those listed in Table 13.
Animals were maintained on the diets for eight weeks. Body weights were recorded weekly. Blood was drawn within 1-2 hrs of lights-on, without fasting. The serum was analyzed for total cholesterol, LDL cholesterol, HDL cholesterol, triglycerides (TG), free fatty acid (FFA) and lysophospholipid (LPC) content.
Statistical analyses were performed using GraphPad Prism 4.03. (GraphPad Software, Inc., San Diego, Calif.). Two sets of statistical analyses were performed. […]

Data set [6] in a line: Mouse pharmacokinetic study (Example 13). To be noted: for bioavailability: male, CD-1, mouse, in vivo, po, 30 mg/kg.
Procedure: The plasma exposure of male CD-1 mice to indole and indole-related test articles (TAs) following intravenous (IV, 3 mg/kg) and oral (PO, 30 mg/kg) routes of administration was measured. This model was used to investigate the bioavailability of indole and indole-related TAs in mouse.
Two groups (N=18 and 27) of male CD-1 mice were used for the study.
The components were mixed by vortexing and sonicating in a warming bath for 60 minutes. Animals were fasted overnight prior to start of the study. On study day (1), formulations were sonicated for an hour to make sure that no visible particles were present prior to dosing, or if present were evenly distributed in suspension. Formulated test article were stirred continuously during dosing.
All animals were weighed on study day (1) and the body weights were recorded and used for dose calculation. […] Blood samples (0.5 mL) were collected at specified time intervals into labeled, yellow-capped Microtainer tubes. The tubes were centrifuged (8,000×g, 10 min). Serum was then pipetted off into labeled Eppendorf® tubes and frozen at −80° C. Clinical observations were recorded as needed.
Analysis of serum samples was performed by LC/MS/MS (Waters Quattro Premier, Milford, Mass.). Areas under curves (AUC) were calculated using Graphpad Prism Version 4. Bioavailability was calculated using the following equation: (Bioavailability)=(AUC0-t, oral/AUC0-t, iv)×(Doseiv/Doseoral)×100 where AUC0-t=total area under curve at the last measurable time point
In data set [7] the target is T1, human group 1B PLA2 (hps PLA2) (Homo sapiens, UniProt P04054).
T1 construct: made in house; host or cells: E. coli
The data set can be described thus: Fluorimetric PLA2 inhibition assay, human (Example 8). The data set is classed as biochemical. The settings on record: read-out: ILYPSA % inhibition at 15 μM hps PLA2.
Source text: (§1) In this example, a fluorimetric assay procedure was used to evaluate the indole and indole-related compounds of the invention as inhibitors of group 1B phospholipase A2 (PLA2) from human, mouse and porcine.
(§2) In general, this assay used a phosphatidylmethanol substrate with a pyrene fluorophore on the terminal end of the sn-2 fatty acyl chain. Without being bound by theory, close proximity of the pyrenes from neighboring phospholipids in a phospholipid vesicle caused the spectral properties to change relative to that of monomeric pyrene. Bovine serum albumin was present in the aqueous phase and captured the pyrene fatty acid when it is liberated from the glycerol backbone owing to the PLA2-catalyzed reaction. […] The effect of a given inhibitor and inhibitor concentration on human, mouse and porcine phospholipase was determined.
(§3) Recombinant human and mouse group 1B PLA2 were cloned and expressed in E. coli as insoluble inclusion bodies. The inclusion bodies were isolated and purified by sonicating cell pellet in lysis buffer (50 mM Tris-HCl pH 7.0, 250 mM NaCl, 0.5% Triton 100), centrifugation at 12,000×g, and washing three times in washing buffer (20 mM Tris-HCl pH 7.0, 250 mM NaCl, 0.5% Triton 100). Then the inclusion bodies were dissolved in dissolving buffer (50 mM Tris-HCl pH 7.0, 250 mM NaCl, 6 M Guanidine-HCl, 1 mM DTT) and dialyzed four times against 10 volumes of refolding buffer (20 mM Tris-HCl pH 7.0, 250 mM NaCl, 0.5M Guanidine-HCl, 5% (w/w) Glycerol, 2 mM reduced glutathione and 0.4 mM oxidized glutathione) at 4° C. The correctly refolded proteins were concentrated using Amicon Stirred cell under nitrogen pressure (<70 psi) and dialyzed against 10 volumes of 50 mM Tris-HCl pH 7.0, 250 mM NaCl and 5% (w/w) glycerol. Human and mouse group 1B PLA2 were further purified by High S ion exchange and gel filtration columns.
(§4) The following reagents were prepared: • 1. PPyrPM stock solution (1 mg/ml) in toluene:isopropanol (1:1) • 2. […]
(§5) The following procedure was performed to evaluate the inhibitory potency of the evaluated compounds. • 1. […]

The target of data set [8] is T2, mouse group 1B PLA2 (mps PLA2) (Mus musculus, UniProt Q9Z0Y2).
T2 construct: made in house; host or cells: E. coli
The data set can be described thus: Fluorimetric PLA2 inhibition assay, mouse (Example 8). To be noted: read-out: ILYPSA % inhibition at 15 μM mps PLA2. Format: biochemical.
Source text: as §1, §2, §3, §4, §5

Chain of human pancreatic secreted PLA2 (hps PLA2) (P04054 23-148): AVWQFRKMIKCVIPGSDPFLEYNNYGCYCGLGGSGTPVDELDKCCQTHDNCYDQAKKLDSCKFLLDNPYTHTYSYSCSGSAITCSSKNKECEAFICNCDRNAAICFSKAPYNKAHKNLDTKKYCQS
Chain of porcine pancreatic secreted PLA2 (pps PLA2) (P00592 23-146): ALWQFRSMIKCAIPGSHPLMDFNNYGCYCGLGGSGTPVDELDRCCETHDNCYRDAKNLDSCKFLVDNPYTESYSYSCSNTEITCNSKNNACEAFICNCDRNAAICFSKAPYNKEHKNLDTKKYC
T1 sequence (P04054 23-148): as the sequence (P04054 23-148) above
T2 sequence (Q9Z0Y2 23-146): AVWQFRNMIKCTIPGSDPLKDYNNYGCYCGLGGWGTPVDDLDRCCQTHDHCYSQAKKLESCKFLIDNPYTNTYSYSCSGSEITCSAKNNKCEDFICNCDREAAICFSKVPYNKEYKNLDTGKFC

Turning to `Cc1c(CC(N)=O)c2c(OCCCC(=O)O)cccc2n1Cc1ccccc1`, the IC50 in data set [1] is 3.66 µM. For `NC(=O)Cc1c(Br)n(Cc2ccccc2)c2ccc(OCCCC(=O)O)cc12`, the half-inhibitory concentration (IC50) in data set [1] is 15.9 µM; in data set [2], 2.86 µM.

For `NC(=O)Cc1c(Br)n(Cc2ccccc2)c2ccc(OCCCP(=O)(O)O)cc12`, the results for the IC50 in data set [1] and in data set [2] were 6.2 µM and 2.2 µM, respectively. In the case of `CCc1c(CC(N)=O)c2cc(OCCCP(=O)(O)O)ccc2n1Cc1cccc(Cl)c1`, the IC50 in data set [1] is 46.2 µM. Take `Cc1c(CC(N)=O)c2cc(CCCC(=O)O)ccc2n1Cc1ccccc1`: the half-maximal inhibitory concentration (IC50) in data set [1] is 94 µM. Turning to `CCc1c(CC(N)=O)c2cc(SCCCC(=O)O)ccc2n1Cc1ccccc1`, in data set [1], the IC50 was 16 µM. For `Cc1c(CC(=O)NN)c2cc(OCCCC(=O)O)ccc2n1Cc1ccccc1`, the “IC50 (μM) hps PLA2” value in data set [1] is “no activity”. The “IC50 (μM) pps PLA2” value in data set [2] is on record as “no activity”. As to `Cc1c(C(=O)C(N)=O)c2c(/C=C/C(=O)O)cccc2n1Cc1ccccc1`, the IC50 in data set [1] is > 100 µM. With `Cc1c(C(=O)C(N)=O)c2c(CCC(=O)O)cccc2n1Cc1ccccc1`, the half-inhibitory concentration (IC50) in data set [1] is > 100 µM. For the compound “2,2′,2″-(1,1′,1″-(12,12′,12″-(benzene-1,3,5-triyltris(oxy))tris(dodecane-12,1-diyl))tris(3-(2-amino-2-oxoacetyl)-2-methyl-1H-indole-4,1-diyl))tris(oxy)triacetic acid [ILY-v-32]”, in data set [3], the “clinical pathology data, treated groups vs vehicle control group” value is listed as “no differences”. Besides, the “effect in animals fed a low fat control diet containing test article” value (“effect” for short) in data set [4] and in data set [5] was “No or little effect” each time.

For the compound `Cc1c(C(=O)C(N)=O)c2c(OCC(=O)NS(=O)(=O)CCCC(=O)O)cccc2n1Cc1ccccc1` [ILY-IV-40, 4-[2-(3-Aminooxalyl-1-benzyl-2-methyl-1H-indol-4-yloxy)-acetylsulfamoyl]-butyric acid], the “clinical pathology data, treated groups vs vehicle control group” value in data set [3] was “no differences”. Also, the “Bioavailability (%)” value in data set [6] (PO 30 mg/kg vs IV 3 mg/kg, CD-1 mice, serum LC/MS/MS) turned out to be 0.50%. In addition, the “effect” value in data set [4] and in data set [5] was “No or little effect” in each case. As to `Cc1c(C(=O)C(N)=O)c2c(OC(Br)(C(N)=O)C(F)(F)F)cccc2n1Cc1ccccc1` (stereo not drawn) [ILY-IV-53, 2-(3-Aminooxalyl-1-benzyl-2-methyl-1H-indol-4-yloxy)-2-bromo-3,3,3-trifluoro-propionamide], the inhibition at 15 µM in data set [7] is 49%; in data set [8], 49.7%. With `Cc1c(C(=O)C(N)=O)c2c(OCC(=O)O)cccc2n1CCCCCCCCCCCCSCCCCCCCCSCCCCCCCCCCCCn1c(C)c(C(=O)C(N)=O)c2c(OCC(=O)O)cccc21` [ILY-v-26, 2,2′-(1,1′-(12,12′-(Octane-1,8-diylbis(sulfanediyl))bis(dodecane-12,1-diyl))bis(3-(2-amino-2-oxoacetyl)-2-methyl-1H-indole-4,1-diyl))bis(oxy)diacetic acid], the “clinical pathology data, treated groups vs vehicle control group” value in data set [3] is recorded as “no differences”. Moreover, the “effect” value in data set [4] and in data set [5] was “No or little effect” throughout. In the case of `Cc1c(C(=O)C(N)=O)c2c(OCC(=O)O)cccc2n1CCCCCCCCCCCCOc1ccccc1OCCCCCCCCCCCCn1c(C)c(C(=O)C(N)=O)c2c(OCC(=O)O)cccc21` [ILY-v-27, [3-Aminooxalyl-1-(12-{2-[12-(3-aminooxalyl-4-carboxymethoxy-2-methyl-indol-1-yl)-dodecyloxy]-phenoxy}-dodecyl)-2-methyl-1H-indol-4-yloxy]-acetic acid], the bioavailability in data set [6] stood at 1.49%. On to `Cc1c(C(=O)C(N)=O)c2c(OCC(=O)O)cccc2n1CCCCCCCCCCCCOc1ccc(C(C)(C)c2ccc(OCCCCCCCCCCCCn3c(C)c(C(=O)C(N)=O)c4c(OCC(=O)O)cccc43)cc2)cc1` [ILY-v-30, 2,2′-(1,1′-(12,12′-(4,4′-(propane-2,2-diyl)bis(4,1-phenylene))bis(oxy)bis(dodecane-12,1-diyl))bis(3-(2-amino-2-oxoacetyl)-2-methyl-1H-indole-4,1-diyl))bis(oxy)diacetic acid], for which, in data set [3], the “clinical pathology data, treated groups vs vehicle control group” value was “no differences”. Further, the “effect” value in data set [4] and in data set [5] was “No or little effect” in each case. `Cc1c(C(=O)C(N)=O)c2c(OCC(=O)O)cccc2n1CCCCCCCCCCCCN(CCCCCCCCCCCCn1c(C)c(C(=O)C(N)=O)c2c(OCC(=O)O)cccc21)Cc1ccccc1` [ILY-v-31, 2,2′-(1,1′-(12,12′-(benzylazanediyl)bis(dodecane-12,1-diyl))bis(3-(2-amino-2-oxoacetyl)-2-methyl-1H-indole-4,1-diyl))bis(oxy)diacetic acid]: in data set [6], the bioavailability stood at 5.15%. In the case of `Cc1c(C(=O)C(N)=O)c2c(OCC(=O)O)cccc2n1CCCCCCCCCCCCOc1ccccc1-c1ccccc1OCCCCCCCCCCCCn1c(C)c(C(=O)C(N)=O)c2c(OCC(=O)O)cccc21` [ILY-v-37, [3-Aminooxalyl-1-(12-{2′-[12-(3-aminooxalyl-4-carboxymethoxy-2-methyl-indol-1-yl)-dodecyloxy]-biphenyl-2-yloxy}-dodecyl)-2-methyl-1H-indol-4-yloxy]-acetic acid], the “clinical pathology data, treated groups vs vehicle control group” value in data set [3] is recorded as “no differences”.
